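Interpolation was linear, between the two tested concentrations surrounding the appropriate level; five concentrations were tested over 48 hours in 96-well plates. GI50 = concentration required for 50% inhibition of growth.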 Active and inactive are the calls of the source. No stated cut-off is given here; in the data, active = GI50 up to about 1.1 µM and inactive = higher.
How the values were obtained:
Assay in all cases: growth of human tumour cells (NCI), 48 h
HT-29 = tested on: HT-29
SNB-19 = tested on: SNB-19
SK-OV-3 = tested on: SK-OV-3
A549 = tested on: A549
TK-10 = tested on: TK-10
NCI-H226 = tested on: NCI-H226
SW-620 = tested on: SW-620
UACC-257 = tested on: UACC-257
NCI-H23 = tested on: NCI-H23
U-251 = tested on: U-251
HCC 2998 = tested on: HCC 2998
OVCAR-5 = tested on: OVCAR-5
KM-20L2 = tested on: KM-20L2
COLO 205 = tested on: COLO 205
NCI-H460 = tested on: NCI-H460
CCRF-CEM = tested on: CCRF-CEM

Measured: GI50

CN(C)CCCNC(=O)c1cccc2nc3ccccc3nc12
inactive: HT-29 6.75 µM | SNB-19 19.8 µM | SK-OV-3 > 52.1 µM | A549 12.2 µM | TK-10 27.7 µM | NCI-H226 12 µM | SW-620 8.13 µM | UACC-257 13.2 µM | NCI-H23 14.8 µM | U-251 19.1 µM | HCC 2998 14.8 µM | OVCAR-5 20.9 µM | KM-20L2 25.1 µM | COLO 205 6.95 µM

Cc1cc(N(CCC#N)CCC#N)ccc1/C=C(/NC(=O)/C=C/c1ccccc1)C(N)=O
inactive: HT-29 > 100 µM | SNB-19 > 100 µM | SK-OV-3 > 100 µM | NCI-H460 > 100 µM | A549 > 100 µM | TK-10 > 100 µM | NCI-H226 > 100 µM | SW-620 > 100 µM | UACC-257 > 100 µM | NCI-H23 > 100 µM | U-251 > 100 µM | HCC 2998 > 100 µM | OVCAR-5 > 100 µM | CCRF-CEM > 100 µM | KM-20L2 > 100 µM | COLO 205 > 100 µM

CN(C)CC1CC/C(=C\c2ccc(Cl)c(Cl)c2)C1=O (centres undefined)
inactive: HT-29 25.5 µM | SNB-19 37.3 µM | SK-OV-3 > 100 µM | NCI-H460 17.4 µM | A549 > 100 µM | TK-10 13.2 µM | NCI-H226 > 100 µM | SW-620 24.3 µM | UACC-257 24.7 µM | NCI-H23 20.6 µM | U-251 > 42.3 µM | HCC 2998 > 40.8 µM | OVCAR-5 > 55.2 µM | CCRF-CEM 2.49 µM | KM-20L2 > 34.5 µM | COLO 205 32.9 µM

O=C1C2C3C=CC(C2C(=O)N1CN1CCSCC1)C1C2C(=O)N(CN4CCSCC4)C(=O)C2C31 (centres undefined)
inactive: HT-29 > 74 µM | SNB-19 > 100 µM | SK-OV-3 > 100 µM | NCI-H460 31.2 µM | A549 62.1 µM | TK-10 > 100 µM | NCI-H226 > 100 µM | SW-620 31.7 µM | UACC-257 > 100 µM | NCI-H23 > 100 µM | U-251 > 72.1 µM | HCC 2998 > 100 µM | OVCAR-5 > 100 µM | CCRF-CEM 45.9 µM | KM-20L2 > 76.2 µM | COLO 205 56.5 µM

COC(=O)/C(=C\c1ccc(N(CCC#N)CCC#N)cc1)NC(=O)c1cc([N+](=O)[O-])ccc1Cl
inactive: HT-29 > 100 µM | SNB-19 > 100 µM | SK-OV-3 > 100 µM | NCI-H460 > 100 µM | A549 > 100 µM | TK-10 > 100 µM | NCI-H226 > 100 µM | SW-620 > 100 µM | UACC-257 > 100 µM | NCI-H23 > 100 µM | U-251 > 100 µM | HCC 2998 > 100 µM | OVCAR-5 > 100 µM | CCRF-CEM > 100 µM | KM-20L2 > 100 µM | COLO 205 > 100 µM

C1CN2CCN3CCN4CCN1[PH]243
inactive: HT-29 > 100 µM | SNB-19 > 100 µM | SK-OV-3 > 100 µM | NCI-H460 > 100 µM | A549 > 100 µM | TK-10 > 100 µM | NCI-H226 > 100 µM | SW-620 > 100 µM | UACC-257 > 100 µM | NCI-H23 > 100 µM | U-251 > 100 µM | HCC 2998 > 100 µM | OVCAR-5 > 100 µM | CCRF-CEM > 100 µM | KM-20L2 > 100 µM | COLO 205 > 100 µM

CCOc1ccc(NC(=O)C2=C(C)NC(C)=C(C(=O)Nc3ccc(OCC)cc3)C2c2ccc(O)c(OC)c2)cc1
inactive: HT-29 > 100 µM | SNB-19 > 100 µM | SK-OV-3 > 100 µM | NCI-H460 80.4 µM | A549 > 100 µM | TK-10 > 100 µM | NCI-H226 40.3 µM | SW-620 > 100 µM | UACC-257 47.8 µM | NCI-H23 > 100 µM | U-251 55.6 µM | HCC 2998 2.35 µM | OVCAR-5 > 100 µM | CCRF-CEM 46.9 µM | KM-20L2 > 100 µM | COLO 205 96.8 µM

CC1C(O)=C(O)c2ccccc2N1O (centres undefined)
inactive: HT-29 12.2 µM | SNB-19 > 100 µM | SK-OV-3 > 100 µM | NCI-H460 > 100 µM | A549 > 100 µM | TK-10 > 100 µM | NCI-H226 37.4 µM | SW-620 98.9 µM | UACC-257 83.2 µM | NCI-H23 54.7 µM | U-251 > 100 µM | HCC 2998 > 100 µM | OVCAR-5 > 100 µM | CCRF-CEM 47.3 µM | KM-20L2 > 100 µM | COLO 205 > 100 µM

O=C(/C=C/c1ccc(Cl)c(Cl)c1)c1ccc(F)cc1
inactive: HT-29 13.3 µM | SNB-19 16.8 µM | SK-OV-3 29 µM | NCI-H460 23.6 µM | A549 42.8 µM | TK-10 25.4 µM | NCI-H226 33.1 µM | SW-620 2.05 µM | UACC-257 23.8 µM | NCI-H23 29.8 µM | U-251 13 µM | HCC 2998 16.6 µM | OVCAR-5 18.3 µM | CCRF-CEM 4.42 µM | KM-20L2 16.5 µM | COLO 205 23.3 µM

CC(=O)OC1C(COC(N)=O)OC(n2c(-c3ccc(C)cc3)cc(-c3ccccc3)c(C#N)c2=O)C(OC(C)=O)C1OC(C)=O (centres undefined)
inactive: HT-29 > 100 µM | SNB-19 > 100 µM | SK-OV-3 > 100 µM | NCI-H460 96.2 µM | A549 > 100 µM | TK-10 > 100 µM | NCI-H226 > 100 µM | SW-620 > 100 µM | UACC-257 > 100 µM | NCI-H23 > 100 µM | U-251 > 100 µM | HCC 2998 53.7 µM | OVCAR-5 > 100 µM | CCRF-CEM > 100 µM | KM-20L2 > 100 µM | COLO 205 > 100 µM

CCCCCCNC(=O)CCN(C(=O)O)S(=O)(=O)c1ccc(NC(=O)c2ccccc2)cc1
inactive: HT-29 > 86.1 µM | SNB-19 > 100 µM | SK-OV-3 > 100 µM | NCI-H460 27.6 µM | A549 > 45.7 µM | TK-10 > 100 µM | NCI-H226 > 100 µM | SW-620 14.2 µM | UACC-257 > 48.9 µM | NCI-H23 > 100 µM | U-251 20 µM | HCC 2998 > 100 µM | OVCAR-5 > 100 µM | CCRF-CEM 22.3 µM | KM-20L2 > 100 µM | COLO 205 24.8 µM

C=C(CO)CC(/C=C(\C)CC/C=C(\C)CCl)OC(C)=O (centres undefined)
inactive: HT-29 > 100 µM | SNB-19 > 100 µM | SK-OV-3 > 100 µM | NCI-H460 > 100 µM | A549 > 100 µM | TK-10 > 100 µM | NCI-H226 > 100 µM | SW-620 > 100 µM | NCI-H23 > 100 µM | U-251 > 100 µM | HCC 2998 > 100 µM | OVCAR-5 > 100 µM | CCRF-CEM > 100 µM | KM-20L2 > 100 µM | COLO 205 > 100 µM

From ChEMBL document CHEMBL1201862, “PubChem BioAssay data set” (2004)
